Assay results reported in patent US11247990B1, “Bicyclic fused pyridine compounds as inhibitors of TAM kinases” (ARRAY BIOPHARMA INC., priority 2017, dated 2022).
Where a name gives a salt, the structure may show the parent alone.

Key:
Conditions in all cases: averaged IC50
[1] = molecular target: His-tagged recombinant human AXL cytoplasmic domain (Homo sapiens (Human), UniProt P30530); assay: AXL Enzyme Assay (LanthaScreen Eu Kinase Binding, TR-FRET)
Procedure, shortened: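 LanthaScreen Eu kinase binding format, incubated 60 min at 22 °C and read by TR-FRET dual-wavelength emission ratio as percent of control. IC50 taken where a 4-parameter logistic fit crosses 50 POC.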

[2] = molecular target: His-tagged recombinant human MER cytoplasmic domain (Homo sapiens (Human), UniProt Q12866); assay: MER Enzyme Assay (LanthaScreen Eu Kinase Binding, TR-FRET)
Procedure, shortened: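 LanthaScreen Eu kinase binding (tracer displacement) assay with His-tagged human MER cytoplasmic domain, 60 min incubation at 22 °C. TR-FRET dual-wavelength emission ratio converted to percent of control; IC50 is where the 4-parameter logistic fit crosses 50 POC.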

[3] = molecular target: GST-tagged recombinant human TYRO3 kinase domain (Homo sapiens (Human), UniProt Q06418); assay: TYRO3 Enzyme Assay (LanthaScreen Eu Kinase Binding, TR-FRET)
Procedure, shortened: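 LanthaScreen Eu binding (tracer displacement) format read by TR-FRET after 60 min at 22 °C. Emission ratio converted to percent of control; IC50 taken where a 4-parameter logistic fit crosses 50 POC.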

GST-tagged recombinant human TYRO3 kinase domain, sequence (Q06418 518-790): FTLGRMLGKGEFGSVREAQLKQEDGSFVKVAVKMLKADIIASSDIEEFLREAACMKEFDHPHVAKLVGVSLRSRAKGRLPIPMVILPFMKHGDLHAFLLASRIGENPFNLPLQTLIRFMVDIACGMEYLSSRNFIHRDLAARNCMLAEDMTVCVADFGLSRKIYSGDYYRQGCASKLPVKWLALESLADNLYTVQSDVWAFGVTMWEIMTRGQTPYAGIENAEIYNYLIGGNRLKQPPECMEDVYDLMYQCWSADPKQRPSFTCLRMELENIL
His-tagged recombinant human AXL cytoplasmic domain, sequence (P30530 473-894): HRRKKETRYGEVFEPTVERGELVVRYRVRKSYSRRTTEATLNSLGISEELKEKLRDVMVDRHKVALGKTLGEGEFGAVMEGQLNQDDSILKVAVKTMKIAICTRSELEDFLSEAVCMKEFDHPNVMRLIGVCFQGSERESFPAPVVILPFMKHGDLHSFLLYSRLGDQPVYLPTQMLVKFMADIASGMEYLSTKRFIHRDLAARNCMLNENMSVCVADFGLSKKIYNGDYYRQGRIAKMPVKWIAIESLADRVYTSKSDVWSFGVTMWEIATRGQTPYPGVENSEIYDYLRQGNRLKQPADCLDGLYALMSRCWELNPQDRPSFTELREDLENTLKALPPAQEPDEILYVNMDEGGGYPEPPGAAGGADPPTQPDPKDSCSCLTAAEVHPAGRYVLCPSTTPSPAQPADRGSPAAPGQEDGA
His-tagged recombinant human MER cytoplasmic domain, sequence (Q12866 527-999): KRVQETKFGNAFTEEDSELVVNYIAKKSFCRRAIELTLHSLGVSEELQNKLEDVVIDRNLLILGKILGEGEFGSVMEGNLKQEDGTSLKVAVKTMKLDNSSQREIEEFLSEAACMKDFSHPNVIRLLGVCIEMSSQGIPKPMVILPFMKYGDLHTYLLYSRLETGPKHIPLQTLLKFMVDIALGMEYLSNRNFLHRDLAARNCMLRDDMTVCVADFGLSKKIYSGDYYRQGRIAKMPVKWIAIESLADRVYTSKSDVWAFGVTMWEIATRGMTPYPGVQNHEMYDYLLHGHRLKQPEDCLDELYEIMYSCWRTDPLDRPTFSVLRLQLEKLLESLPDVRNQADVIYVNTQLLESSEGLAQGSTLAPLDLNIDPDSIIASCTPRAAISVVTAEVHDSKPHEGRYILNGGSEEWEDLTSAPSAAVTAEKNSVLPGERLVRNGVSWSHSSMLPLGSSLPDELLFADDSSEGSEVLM

SMILES | IC50 [1] | IC50 [2] | IC50 [3]
CNc1cc2c(cn1)c(-c1cnn(C3CCN(C)CC3)c1)nn2[C@H]1CC[C@@H](Oc2nccnc2C)CC1 [Example 214, N-methyl-3-(1-(1-methylpiperidin-4-yl)-1H-pyrazol-4-yl)-1-((1s,4s)-4-((3-methylpyrazin-2-yl)oxy)cyclohexyl)-1H-pyrazolo[4,3-c]pyridin-6-amine] | < 10 nM | < 10 nM | 10 to 100 nM
CNc1cc2c(cn1)c(-c1cnn(CC3CCOCC3)c1)nn2[C@H]1CC[C@@H](Oc2nccnc2C)CC1 [Example 215, N-methyl-1-((1s,4s)-4-((3-methylpyrazin-2-yl)oxy)cyclohexyl)-3-(1-((tetrahydro-2H-pyran-4-yl)methyl)-1H-pyrazol-4-yl)-1H-pyrazolo[4,3-c]pyridin-6-amine] | < 10 nM | < 10 nM | 10 to 100 nM
CNc1cc2c(cn1)c(-c1ccn(C)c(=O)c1)nn2[C@H]1CC[C@@H](Oc2cccnc2C(F)(F)F)CC1 [Example 216, 1-methyl-4-(6-(methylamino)-1-((1s,4s)-4-((2-(trifluoromethyl)pyridin-3-yl)oxy)cyclohexyl)-1H-pyrazolo[4,3-c]pyridin-3-yl)pyridin-2(1H)-one] | < 10 nM | < 10 nM | < 10 nM
CNc1cc2c(cn1)c(-c1ccc(=O)n(C)c1)nn2[C@H]1CC[C@@H](Oc2cccnc2C(F)(F)F)CC1 [Example 217, 1-methyl-5-(6-(methylamino)-1-((1s,4s)-4-((2-(trifluoromethyl)pyridin-3-yl)oxy)cyclohexyl)-1H-pyrazolo[4,3-c]pyridin-3-yl)pyridin-2(1H)-one] | < 10 nM | < 10 nM | < 10 nM
CNc1cc2c(cn1)c(-c1ccc3c(c1)CNC3=O)nn2[C@H]1CC[C@@H](Oc2cccnc2C(F)(F)F)CC1 [Example 218, 5-(6-(methylamino)-1-((1s,4s)-4-((2-(trifluoromethyl)pyridin-3-yl)oxy)cyclohexyl)-1H-pyrazolo[4,3-c]pyridin-3-yl)isoindolin-1-one] | < 10 nM | < 10 nM | < 10 nM
CCNc1cc2c(cn1)c(-c1ccn(C)c(=O)c1)nn2[C@H]1CC[C@@H](Oc2cccnc2C(F)(F)F)CC1 [Example 219, 4-(6-(ethylamino)-1-((1s,4s)-4-((2-(trifluoromethyl)pyridin-3-yl)oxy)cyclohexyl)-1H-pyrazolo[4,3-c]pyridin-3-yl)-1-methylpyridin-2(1H)-one hydrochloride] | < 10 nM | < 10 nM | < 10 nM
CCNc1cc2c(cn1)c(-c1ccc3c(c1)CNS3(=O)=O)nn2[C@H]1CC[C@@H](Oc2cn(C)nc2C(F)(F)F)CC1 [Example 221, 5-(6-(ethylamino)-1-((1s,4s)-4-((1-methyl-3-(trifluoromethyl)-1H-pyrazol-4-yl)oxy)cyclohexyl)-1H-pyrazolo[4,3-c]pyridin-3-yl)-2,3-dihydrobenzo[d]isothiazole 1,1-dioxide] | < 10 nM | < 10 nM | < 10 nM
CCNc1cc2c(cn1)c(-c1ccc3c(c1)CN(C)S3(=O)=O)nn2[C@H]1CC[C@@H](Oc2cn(C)nc2C(F)(F)F)CC1 [Example 222, 5-(6-(ethylamino)-1-((1s,4s)-4-((1-methyl-3-(trifluoromethyl)-1H-pyrazol-4-yl)oxy)cyclohexyl)-1H-pyrazolo[4,3-c]pyridin-3-yl)-2-methyl-2,3-dihydrobenzo[d]isothiazole 1,1-dioxide] | < 10 nM | < 10 nM | < 10 nM
CCNc1cc2c(cn1)c(-c1cnn(C[C@H](O)C(C)(C)O)c1)nn2[C@H]1CC[C@@H](Oc2nccc(C(F)(F)F)c2F)CC1 [Example 236, (S)-1-(4-(6-(ethylamino)-1-((1s,4R)-4-((3-fluoro-4-(trifluoromethyl)pyridin-2-yl)oxy)cyclohexyl)-1H-pyrazolo[4,3-c]pyridin-3-yl)-1H-pyrazol-1-yl)-3-methylbutane-2,3-diol] | < 10 nM | < 10 nM | 10 to 100 nM
CCNc1cc2c(cn1)c(-c1cnn(C[C@@H](O)C(C)(C)O)c1)nn2[C@H]1CC[C@@H](Oc2nccc(C(F)(F)F)c2F)CC1 [Example 237, (R)-1-(4-(6-(ethylamino)-1-((1s,4R)-4-((3-fluoro-4-(trifluoromethyl)pyridin-2-yl)oxy)cyclohexyl)-1H-pyrazolo[4,3-c]pyridin-3-yl)-1H-pyrazol-1-yl)-3-methylbutane-2,3-diol] | < 10 nM | < 10 nM | 10 to 100 nM
CCNc1cc2c(cn1)c(-c1cnn(CC(C)(O)CO)c1)nn2[C@H]1CC[C@@H](Oc2nccc(C(F)(F)F)c2F)CC1 (stereo partly drawn) [Example 238, 3-(4-(6-(ethylamino)-1-((1s,4s)-4-((3-fluoro-4-(trifluoromethyl)pyridin-2-yl)oxy)cyclohexyl)-1H-pyrazolo[4,3-c]pyridin-3-yl)-1H-pyrazol-1-yl)-2-methylpropane-1,2-diol] | < 10 nM | < 10 nM | 10 to 100 nM
CCNc1cc2c(cn1)c(-c1cnn(C[C@H](O)[C@H](C)O)c1)nn2[C@H]1CC[C@@H](Oc2nccc(C(F)(F)F)c2F)CC1 [Example 239, (2S,3S)-1-(4-(6-(ethylamino)-1-((1s,4R)-4-((3-fluoro-4-(trifluoromethyl)pyridin-2-yl)oxy)cyclohexyl)-1H-pyrazolo[4,3-c]pyridin-3-yl)-1H-pyrazol-1-yl)butane-2,3-diol] | < 10 nM | < 10 nM | < 10 nM
CCNc1cc2c(cn1)c(-c1cnn(C[C@@H](O)CO)c1)nn2[C@H]1CC[C@@H](Oc2cc(Cl)ccn2)CC1 [Example 246, (R)-3-(4-(1-((1s,4S)-4-((4-chloropyridin-2-yl)oxy)cyclohexyl)-6-(ethylamino)-1H-pyrazolo[4,3-c]pyridin-3-yl)-1H-pyrazol-1-yl)propane-1,2-diol] | < 10 nM | < 10 nM | 10 to 100 nM
CCNc1cc2c(cn1)c(-c1cnn(C[C@@H](O)C(C)(C)O)c1)nn2[C@H]1CC[C@@H](Oc2cn(C)nc2C(F)(F)F)CC1 [Example 247, (R)-1-(4-(6-(ethylamino)-1-((1s,4S)-4-((1-methyl-3-(trifluoromethyl)-1H-pyrazol-4-yl)oxy)cyclohexyl)-1H-pyrazolo[4,3-c]pyridin-3-yl)-1H-pyrazol-1-yl)-3-methylbutane-2,3-diol] | < 10 nM | < 10 nM | < 10 nM
CCNc1cc2c(cn1)c(-c1cnn(CC(N)=O)c1)nn2[C@H]1CC[C@@H](Oc2nccc(C(F)(F)F)c2F)CC1 [Example 248, 2-(4-(6-(ethylamino)-1-((1s,4s)-4-((3-fluoro-4-(trifluoromethyl)pyridin-2-yl)oxy)cyclohexyl)-1H-pyrazolo[4,3-c]pyridin-3-yl)-1H-pyrazol-1-yl)acetamide] | < 10 nM | < 10 nM | < 10 nM
CCNc1cc2c(cn1)c(C1=CCN(C)CC1)nn2[C@H]1CC[C@@H](Oc2nccc(C(F)(F)F)c2F)CC1 [Example 255] | < 10 nM | < 10 nM | 10 to 100 nM
CCNc1cc2c(cn1)c(-c1cnn(CC(=O)NC)c1)nn2[C@H]1CC[C@@H](Oc2nccc(C(F)(F)F)c2F)CC1 [Example 258, 2-(4-(6-(ethylamino)-1-((1s,4s)-4-((3-fluoro-4-(trifluoromethyl)pyridin-2-yl)oxy)cyclohexyl)-1H-pyrazolo[4,3-c]pyridin-3-yl)-1H-pyrazol-1-yl)-N-methylacetamide] | < 10 nM | < 10 nM | < 10 nM
CCNc1cc2c(cn1)c(-c1cnn(C(C)(C)C#N)c1)nn2[C@H]1CC[C@@H](Oc2nccc(C(F)(F)F)c2F)CC1 [Example 260, 2-(4-(6-(ethylamino)-1-((1s,4s)-4-((3-fluoro-4-(trifluoromethyl)pyridin-2-yl)oxy)cyclohexyl)-1H-pyrazolo[4,3-c]pyridin-3-yl)-1H-pyrazol-1-yl)-2-methylpropanenitrile] | < 10 nM | < 10 nM | 100 to 1000 nM
CCNc1cc2c(cn1)c(-c1ccc(CN3CCN(C)CC3)cc1)nn2[C@H]1CC[C@@H](Oc2nccc(C(F)(F)F)c2F)CC1 [Example 261, N-ethyl-1-((1s,4s)-4-((3-fluoro-4-(tnfluoromethyl)pyridin-2-yl)oxy)cyclohexyl)-3-(4-((4-methylpiperazin-1-yl)methyl)phenyl)-1H-pyrazolo[4,3-c]pyridin-6-amine] | < 10 nM | < 10 nM | 10 to 100 nM
CNc1cc2c(cn1)c(-c1cnn(C)c1)nn2[C@H]1CC[C@@H](Oc2cnn(C)c2C(F)(F)F)CC1 [Example 262, N-methyl-3-(1-methyl-1H-pyrazol-4-yl)-1-((1s,4s)-4-((1-methyl-5-(trifluoromethyl)-1H-pyrazol-4-yl)oxy)cyclohexyl)-1H-pyrazolo[4,3-c]pyridin-6-amine] | < 10 nM | < 10 nM | 10 to 100 nM
CNc1cc2c(cn1)c(-c1cnn(C(C)(C)C#N)c1)nn2[C@H]1CC[C@@H](Oc2cnn(C)c2C(F)(F)F)CC1 [Example 263, 2-methyl-2-(4-(1-((1s,4s)-4-((1-methyl-5-(trifluoromethyl)-1H-pyrazol-4-yl)oxy)cyclohexyl)-6-(methylamino)-1H-pyrazolo[4,3-c]pyridin-3-yl)-1H-pyrazol-1-yl)propanenitrile] | < 10 nM | < 10 nM | 100 to 1000 nM
